# Legend:
# [1] = single evening tablet; melatonin sustained release 2 mg, zolpidem 10 mg
# Description: Method. The pharmacokinetics of melatonin (2 mg sustained release formulation), zolpidem (10 mg) and their combination were assessed in 16 volunteers (12 males and 4 females).
# Blood samples were withdrawn from the subjects at pre-selected intervals after the administration of the tablets.
# volunteers [2] = assay: Cognitive Drug Research tests (attention, episodic secondary memory, motor co-ordination); format: in vivo, human
# Description: (§1) A battery of performance tests and driving skill tests were given to the patients at pre-selected intervals after the administration of the tablet. These included psychomotor tasks for reaction test, vigilance and co-ordination: ARCI 49, Grooved Pegboard, Rivermead story, picture presentation, simple reaction time, digit vigilance task, choice reaction time, delayed picture recognition, visual tracking, driving simulator: highway driving and wake-EEG.
# volunteers [3] = assay: ARCI 49 (MBG, LSD, PCAG, BG scales); format: in vivo, human
# Description: as §1
# volunteers [4] = assay: Rivermead story (immediate and delayed recall); format: in vivo, human; details: compared to placebo and sustained release melatonin 2 mg
# Description: as §1
# volunteers [5] = assay: Grooved Pegboard; format: in vivo, human; details: 1 and 4 hours post-dosing, compared to baseline, placebo and sustained release melatonin 2 mg
# Description: as §1
# volunteers [6] = assay: Driving simulator: highway driving; format: in vivo, human; details: 2 hours post-dosing
# Description: as §1
# volunteers [7] = assay: Wake EEG; format: in vivo, human
# Description: as §1
# volunteers [8] = assay: Treatment-emergent adverse events in the psychomotor/driving study; set-up: species or system human; details: in vivo
# Description: as §1
smiles,measurement,setting,value
"Cc1ccc(-c2nc3ccc(C)cn3c2CC(=O)N(C)C)cc1 [Zolpidem, N,N,6-trimethyl-2-p-toyl-imidazo[1,2,-a]pyridine-3-acetamide L-(+)-tartrate (2:1)]","Time to maximum, zolpidem in serum, Mean (SD)",[1],1.8 (1.2) h
same,"maximum concentration, zolpidem in serum, Mean (SD)",[1],0.22 (0.11) mcg/ml
same,Cognitive effects compared to placebo,"volunteers [2]; dosed alone, melatonin SR 2 mg or zolpidem 10 mg",several acute impairments
same,Time post-dosing by which acute impairments were resolved,volunteers [2]; zolpidem 10 mg alone vs placebo,≤ 12.5 h
same,Sedative effect (increase of the PCAG scale) vs placebo,volunteers [3]; first 4 hours post-dosing,strong significant sedative effect
same,Time after administration at which PCAG sedative effect reached the maximum,volunteers [3]; in vivo,about 4 hour
same,"Memory efficiency, both recalls (immediate and delayed)",volunteers [4],decreased
same,Duration of task execution (ipsi and contra lateral),volunteers [5],significant increase
same,Number of collisions,volunteers [6],increased number of collisions
same,Alpha activity in driving conditions vs sustained release melatonin alone,"volunteers [7]; driving conditions, not different vs placebo",significantly increased
same,Theta rhythm on frontal leads vs placebo,volunteers [7]; in vivo,increased
same,Alpha activity in resting conditions vs placebo,volunteers [7]; resting conditions,decreases in alpha
same,Incidence of somnolence compared with melatonin alone and placebo,volunteers [8],clearly increased
